A short description of this series: IMS visualization of permeation and distribution of acephate in ivy after scattering a grain type agricultural chemical on the soil. The class given is in vivo. The conditions noted are these: for mass spectrum of collected leaves (peaks originating from acephate): FIG. 32; for distribution of acephate on leaf (peak at m/z=206): FIG. 33; for distribution of acephate in stem (peak at m/z=206): ivy stems collected 4 days later, FIG. 34. As to the method:
A grain type pesticide agricultural chemical for horticulture was scattered on soil in which ivy was planted. 4, 8, 11, and 14 days later, leaves at about 30 mm from the soil were collected, and platinum nanoparticles were vapor deposited using a magnetron sputtering device to a thickness of 10 nm, thereby preparing samples. The grain type agricultural chemical that was used contained acephate as an active component.
Each sample was measured by IMS. Also, for the stems that were collected 4 days later, the lower stem and the upper stem, which were respectively close to and far from the root, were measured by IMS under the same conditions.
The measurement conditions of IMS are shown below.
Irradiation laser: Nd:YAG laser (355 nm)
Accelerating voltage: 19 kV
Reflectron voltage: 21 kV
Laser radius: about 100 μm (ultra mode)
Measurement interval: 150 μm

The record followed here is patent publication US9355826B2, “Method for imaging mass analysis using physical vapor deposition of platinum nanoparticles” (priority 2012, dated 2016).

For the compound `COP(=O)(NC(C)=O)SC` (centres unmarked) [acephate], the “mass spectrum of collected leaves (peaks originating from acephate)” value runs as follows: (ivy leaves at about 30 mm from the soil, collected 4 days after scattering on soil) “only the peaks of the wax layer were observed”; (ivy leaves collected 11 days after scattering on soil) “peaks originating from acephate were observed”. Besides, the “distribution of acephate on leaf (peak at m/z=206)” value was “not observed” (ivy leaves collected 4 days later), “observed at the base of the leaves” (ivy leaves collected 8 days later), “observed spreading to the tips of the leaves” (ivy leaves collected 11 days later) and “observed spreading to the tips of the leaves” (ivy leaves collected 14 days later). The “distribution of acephate in stem (peak at m/z=206)” value is “strong peak of acephate was observed in the lower side of the lower stem” (lower stem close to the soil) and “gradual weakening of the acephate peak” (moving upward along the stem).
